Test in all cases: Kinase selectivity, DiscoverX scanMAX Kinase assay panel (% control)
What all share (format): binding

The target in experiment [1] is T1, kinases of the scanMAX Kinase assay panel (Homo sapiens, UniProt Q9NYY3).
T1 construct: purchased DiscoverX Co. (contract measurement) scanMAX Kinase assay panel
As to conditions: PLK2; 1 uM. The method in brief:
(§1)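 Single-point screen, 1 uM cpd in DMSO. % ctrl = (cpd − pos ctrl)/(neg ctrl − pos ctrl)×100; pos ctrl = 0%, DMSO neg ctrl = 100%. Hit cutoff <35%.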

In experiment [2] the target is T2, kinases of the scanMAX Kinase assay panel (Homo sapiens, UniProt O75914).
T2 construct: purchased DiscoverX Co. (contract measurement) scanMAX Kinase assay panel
As to conditions: PAK3; 1 uM. In outline:
as §1

In experiment [3] the target is T3, kinases of the scanMAX Kinase assay panel (Homo sapiens, UniProt Q15139).
T3 construct: purchased DiscoverX Co. (contract measurement) scanMAX Kinase assay panel
T3 sequence (Q15139 1-912): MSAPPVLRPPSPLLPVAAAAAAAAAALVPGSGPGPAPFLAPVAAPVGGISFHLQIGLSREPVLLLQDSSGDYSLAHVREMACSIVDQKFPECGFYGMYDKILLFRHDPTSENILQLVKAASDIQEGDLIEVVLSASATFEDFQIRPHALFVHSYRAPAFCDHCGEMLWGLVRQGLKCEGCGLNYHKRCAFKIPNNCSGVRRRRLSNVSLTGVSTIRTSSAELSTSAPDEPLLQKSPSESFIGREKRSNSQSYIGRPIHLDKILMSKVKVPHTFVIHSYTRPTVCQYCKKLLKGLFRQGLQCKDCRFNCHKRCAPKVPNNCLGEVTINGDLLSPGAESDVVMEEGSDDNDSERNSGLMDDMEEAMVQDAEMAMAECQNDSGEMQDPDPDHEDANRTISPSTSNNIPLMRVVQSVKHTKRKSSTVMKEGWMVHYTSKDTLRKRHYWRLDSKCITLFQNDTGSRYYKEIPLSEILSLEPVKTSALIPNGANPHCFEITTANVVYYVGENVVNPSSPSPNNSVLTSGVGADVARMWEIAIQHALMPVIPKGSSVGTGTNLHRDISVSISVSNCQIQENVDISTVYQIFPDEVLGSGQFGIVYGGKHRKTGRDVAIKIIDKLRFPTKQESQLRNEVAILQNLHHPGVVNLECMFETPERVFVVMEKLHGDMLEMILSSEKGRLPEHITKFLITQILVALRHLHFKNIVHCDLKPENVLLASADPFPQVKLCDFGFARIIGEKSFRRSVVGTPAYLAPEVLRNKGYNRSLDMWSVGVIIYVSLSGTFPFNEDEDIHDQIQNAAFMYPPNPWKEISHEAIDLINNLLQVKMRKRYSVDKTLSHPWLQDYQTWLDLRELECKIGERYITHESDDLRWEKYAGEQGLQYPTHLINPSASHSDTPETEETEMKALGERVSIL
To be noted: PRKD1; 1 uM. In outline:
as §1

Experiment [4] deals with T4, kinases of the scanMAX Kinase assay panel (Homo sapiens, UniProt O00238).
T4 construct: purchased DiscoverX Co. (contract measurement) scanMAX Kinase assay panel
As to conditions: BMPR1B; 1 uM. The method in brief:
as §1

Experiment [5] has as its target T5, kinases of the scanMAX Kinase assay panel (Homo sapiens, UniProt P36888, D835H).
T5 construct: purchased DiscoverX Co. (contract measurement) scanMAX Kinase assay panel
T5 sequence (P36888 27-993 D835H): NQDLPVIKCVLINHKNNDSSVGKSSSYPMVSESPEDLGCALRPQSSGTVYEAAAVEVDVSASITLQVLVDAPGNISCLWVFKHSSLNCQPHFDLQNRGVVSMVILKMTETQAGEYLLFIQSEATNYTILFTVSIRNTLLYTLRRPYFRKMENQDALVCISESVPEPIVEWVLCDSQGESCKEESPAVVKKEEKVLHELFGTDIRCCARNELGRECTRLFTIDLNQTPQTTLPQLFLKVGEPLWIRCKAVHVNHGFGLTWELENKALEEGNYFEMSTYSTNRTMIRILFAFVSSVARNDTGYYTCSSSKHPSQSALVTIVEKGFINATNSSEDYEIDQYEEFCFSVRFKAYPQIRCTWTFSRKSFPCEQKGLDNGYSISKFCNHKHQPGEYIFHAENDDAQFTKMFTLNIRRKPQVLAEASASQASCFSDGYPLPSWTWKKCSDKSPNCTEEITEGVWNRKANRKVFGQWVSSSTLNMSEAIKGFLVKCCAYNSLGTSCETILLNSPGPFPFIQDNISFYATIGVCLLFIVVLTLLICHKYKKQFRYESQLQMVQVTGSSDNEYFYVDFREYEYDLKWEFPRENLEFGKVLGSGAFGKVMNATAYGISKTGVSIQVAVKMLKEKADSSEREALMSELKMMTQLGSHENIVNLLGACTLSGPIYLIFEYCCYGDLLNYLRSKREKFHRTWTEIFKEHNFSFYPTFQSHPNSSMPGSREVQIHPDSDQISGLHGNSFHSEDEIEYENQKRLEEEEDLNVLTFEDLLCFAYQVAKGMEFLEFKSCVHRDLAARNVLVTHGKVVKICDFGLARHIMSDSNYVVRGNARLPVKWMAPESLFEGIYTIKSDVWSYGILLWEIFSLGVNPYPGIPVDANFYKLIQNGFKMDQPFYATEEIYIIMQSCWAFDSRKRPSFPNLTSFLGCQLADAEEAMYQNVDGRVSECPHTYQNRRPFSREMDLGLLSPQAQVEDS
As to conditions: FLT3(D835H); 1 uM. The method in brief: as §1

For three compounds, remaining binding results are on record in US11208412B2 (DAEGU-GYEONGBUK MEDICAL INNOVATION FOUNDATION, priority 2017, dated 2021).

T1 sequence (Q9NYY3 whole entry): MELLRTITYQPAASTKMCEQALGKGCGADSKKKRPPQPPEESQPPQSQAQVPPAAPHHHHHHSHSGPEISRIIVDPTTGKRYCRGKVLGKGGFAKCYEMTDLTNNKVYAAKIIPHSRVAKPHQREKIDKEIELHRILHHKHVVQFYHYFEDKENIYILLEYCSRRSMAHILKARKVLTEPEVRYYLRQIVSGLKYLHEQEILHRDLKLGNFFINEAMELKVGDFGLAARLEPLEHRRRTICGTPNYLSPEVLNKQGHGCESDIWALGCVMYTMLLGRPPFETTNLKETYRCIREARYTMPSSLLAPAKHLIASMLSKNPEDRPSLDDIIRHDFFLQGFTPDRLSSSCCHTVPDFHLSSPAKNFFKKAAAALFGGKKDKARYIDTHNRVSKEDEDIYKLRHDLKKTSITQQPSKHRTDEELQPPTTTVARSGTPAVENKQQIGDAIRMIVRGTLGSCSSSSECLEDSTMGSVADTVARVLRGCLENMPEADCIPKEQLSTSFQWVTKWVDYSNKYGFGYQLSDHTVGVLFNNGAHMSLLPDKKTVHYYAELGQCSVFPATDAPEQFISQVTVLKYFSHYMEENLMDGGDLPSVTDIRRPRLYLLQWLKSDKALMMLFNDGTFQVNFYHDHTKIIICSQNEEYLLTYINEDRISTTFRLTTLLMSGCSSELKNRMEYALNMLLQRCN
T2 sequence (O75914 whole entry): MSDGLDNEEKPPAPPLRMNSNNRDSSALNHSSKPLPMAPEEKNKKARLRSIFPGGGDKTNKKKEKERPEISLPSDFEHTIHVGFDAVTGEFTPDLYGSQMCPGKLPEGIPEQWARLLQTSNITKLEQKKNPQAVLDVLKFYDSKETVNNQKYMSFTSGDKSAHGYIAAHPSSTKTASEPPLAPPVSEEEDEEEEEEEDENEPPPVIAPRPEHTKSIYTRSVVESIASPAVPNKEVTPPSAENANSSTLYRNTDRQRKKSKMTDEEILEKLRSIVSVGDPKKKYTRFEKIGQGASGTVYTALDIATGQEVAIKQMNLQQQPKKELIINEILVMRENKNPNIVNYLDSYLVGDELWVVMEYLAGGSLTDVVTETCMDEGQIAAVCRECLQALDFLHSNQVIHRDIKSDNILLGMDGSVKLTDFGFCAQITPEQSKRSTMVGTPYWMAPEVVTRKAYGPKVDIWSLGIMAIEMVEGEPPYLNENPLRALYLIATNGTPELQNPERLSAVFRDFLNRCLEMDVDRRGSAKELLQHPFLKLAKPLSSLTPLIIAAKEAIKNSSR
T4 sequence (O00238 14-502): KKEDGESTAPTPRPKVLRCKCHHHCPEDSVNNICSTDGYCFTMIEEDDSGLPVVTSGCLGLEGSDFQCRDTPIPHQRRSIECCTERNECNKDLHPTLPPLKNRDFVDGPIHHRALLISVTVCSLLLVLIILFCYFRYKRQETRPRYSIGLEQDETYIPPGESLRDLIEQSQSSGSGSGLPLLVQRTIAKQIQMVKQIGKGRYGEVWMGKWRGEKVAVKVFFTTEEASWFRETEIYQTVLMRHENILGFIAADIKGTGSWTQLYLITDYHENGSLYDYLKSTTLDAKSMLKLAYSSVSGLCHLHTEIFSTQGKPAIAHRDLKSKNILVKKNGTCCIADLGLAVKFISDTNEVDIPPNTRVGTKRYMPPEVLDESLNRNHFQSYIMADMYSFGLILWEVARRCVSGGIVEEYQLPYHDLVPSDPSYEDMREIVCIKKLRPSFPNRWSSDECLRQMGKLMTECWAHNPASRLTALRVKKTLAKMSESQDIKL

Regarding `CC1(Nc2nc(Nc3cnn([C@H]4CCN(C5COC5)C[C@@H]4F)c3Cl)nc3[nH]cc(C#N)c23)CC1` [Example 52, 2-((5-chloro-1-((3S,4S)-3-fluoro-1-(oxetane-3-yl)piperidine-4-yl)-1H-pyrazole-4-yl)amino)((1-methylcyclopropyl)amino)-7H-pyrrolo[2,3-d]pyrimidine-5-carbonitrile], the remaining binding at 1 µM was determined as 93% in experiment [1]; 17% in experiment [2]; 12% in experiment [3]; 22% in experiment [4]; 0.1% in experiment [5].
For `CCNc1nc(Nc2ccc(C(=O)N3CCC(N4CCOCC4)CC3)cc2OC)nc2[nH]cc(C(F)(F)F)c12` [Example 104, (4-((4-(ethylamino)-5-(trifluoromethyl)-7H-pyrrolo[2,3-d]pyrimidine-2-yl)amino)-3-methoxyphenyl)(4-morpholinopiperidine-1-yl)methanone] the same measures were 100%, 100%, 11%, 83% and 21%.
`CNc1nc(Nc2ccc(C(=O)N3CCOCC3)cc2OC)nc2[nH]cc(C#N)c12` [Example 1, 2-((2-methoxy-4-(morpholine-4-carbonyl)phenyl)amino)-4-(methylamino)-7H-pyrrolo[2,3-d]pyrimidine-5-carbonitrile]: the remaining binding at 1 µM in experiment [1] was 81%; in experiment [2], 68%; in experiment [3] it was 5.7%; in experiment [4], 98%; in experiment [5] it was 92%.
